Data: patent publication US8722088B2, “Pharmaceutical compositions and methods for the treatment of prostate cancer” (Ferring International Center S.A., priority 2009, dated 2014)
Where a SMILES comes first, the peptide text is derived from it. [ ]: non-standard residue; d: D form. The star is where a group is joined. dPhe(4-NHCONH2) = NC(=O)Nc1ccc(C[C@@H](N)C(=O)O)cc1; Dihydroorotyl(S) = O=C1C[C@@H](C(=O)*)NC(=O)N1; dPhe(4-Cl) = N[C@H](Cc1ccc(Cl)cc1)C(=O)O; Phe(4-NH2) = Nc1ccc(C[C@H](N)C(=O)O)cc1; d2Nal = N[C@H](Cc1ccc2ccccc2c1)C(=O)O; Lys(iPr) = CC(C)NCCCC[C@H](N)C(=O)O; d3Pal = N[C@H](Cc1cccnc1)C(=O)O

Key:
clinical [1] = details: human, in vivo
Text: Throughout the ongoing degarelix development program, population pharmacokinetic/pharmacodynamic (PK/PD) modeling and simulations have been employed to get a better understanding of the PK and PD data, and the relationship between these and other parameters. […] Because of the variability in the population, it was considered that this median plasma concentration might not be sufficient to maintain long-term testosterone suppression in approximately 95% of the patients. It was therefore proposed that the dose administered should produce mean serum trough degarelix levels of >9 ng/ml or higher in the Phase 3 studies for the one-month dosing regimen program.

clinical [2] = details: human, in vivo, 240 mg
Protocol: A three-month dosing regimen Phase 2 study investigated three different dosing regimens. After a starting dose of […] (with a concentration of 40 mg/mL of solvent), a further dose (i.e., maintenance dose) of 240 mg was given on Day 28, and then at Months 3, 6, and 9 or at Months 4, 7, and 10. Maintenance doses of 240 mg were evaluated initially at concentrations of 40 mg/mL and 60 mg/mL in this study, based on the observed results by different PK profiles of different concentrations. The patients were randomized in parallel to one of three different three-month maintenance dosing regimens of degarelix:
Thus, patients with lower degarelix plasma levels were more likely to have a testosterone level>0.5 ng/mL during the one year treatment period. […] This is consistent with the observation that for most patients, the time of first occurrence of a testosterone level>0.5 ng/mL was three months after a previous dose, at the time of trough degarelix plasma levels. The median trough degarelix plasma levels in the study ranged from about 6.5-7.5 ng/mL.

serum testosterone = experiment: Clinical trial CS18 (Phase 2, three-month dosing regimen): serum testosterone ≦0.5 ng/mL; type: in vivo, human; details: for cumulative probability of testosterone ≦0.5 ng/mL, Kaplan-Meier estimate / number of patients with testosterone > 0.5 ng/mL: Day 28 to Day 364; for cumulative probability of testosterone ≦0.5 ng/mL, Kaplan-Meier estimate / proportion of patients with testosterone ≦0.5 ng/mL: ITT
Protocol: The present study included a starting degarelix dose of 240 mg (with a concentration of 40 mg/mL of solvent), followed by maintenance doses of degarelix: i.e., 360 mg (with a concentration of 60 mg/mL of solvent) or 480 mg (with a concentration of 60 mg/mL of solvent), the latter administered at Months 1, 4, 7, and 10.
The study was open labeled and patients received a starting dose of 240 mg (with a concentration of 40 mg/mL of solvent) at Month 0 followed by one of two degarelix maintenance dose treatment regimens: 360 mg (with a concentration of 60 mg/mL of solvent) at Months 1, 4, 7, and 10; or 480 mg (with a concentration of 60 mg/mL of solvent) at Months 1, 4, 7, and 10.
The starting dose was administered subcutaneously as two injections of 120 mg (with a concentration of 40 mg/ml of solvent, given as 2×3 mL injections). After 28 days a maintenance dose of 360 mg (with a concentration of 60 mg/mL, given as 2×3 mL injections) or 480 mg (with a concentration of 60 mg/mL, given as 2×4 mL injections) was administered, also in two injections (each of 240 mg). Thereafter, with three monthly intervals, maintenance doses were given, again in the form of two injections. […] At each visit, serum testosterone, prostate specific androgen (PSA), and plasma concentration of degarelix were measured by techniques well known in the art.

SMILES: CC(=O)N[C@H](Cc1ccc2ccccc2c1)C(=O)N[C@H](Cc1ccc(Cl)cc1)C(=O)N[C@H](Cc1cccnc1)C(=O)N[C@@H](CO)C(=O)N[C@@H](Cc1ccc(NC(=O)[C@@H]2CC(=O)NC(=O)N2)cc1)C(=O)N[C@H](Cc1ccc(NC(N)=O)cc1)C(=O)N[C@@H](CC(C)C)C(=O)N[C@@H](CCCCNC(C)C)C(=O)N1CCC[C@H]1C(=O)N[C@H](C)C(N)=O [Degarelix, D-Alaninamide, N-acetyl-3-(2-naphthalenyl)-D-alanyl-4-chloro-D-phenylalanyl-3-(3-pyridinyl)-D-alanyl-L-seryl-4-[[[(4S)-hexahydro-2,6-dioxo-4-pyrimidinyl]carbonyl]amino]-L-phenylalanyl-4-[(aminocarbonyl)amino]-D-phenylalanyl-L leucyl-N6-(1-methylethyl)-L-lysyl-L-prolyl] (Ac-[d2Nal][dPhe(4-Cl)][d3Pal]S[Phe(4-NH2)](Dihydroorotyl(S))[dPhe(4-NHCONH2)]L[Lys(iPr)]P[dA]-NH2)
- level at 672 h (clinical [1]): 7.34 ng/mL
- level at 2016 h (clinical [1]): 4.54 ng/mL
- estimated median degarelix trough concentration (clinical [2]): < 9 ng/mL
- level at 1 year (clinical [2]): ~7 ng/mL
- level at 3 months after a previous dose (clinical [2]): 6.5 to 7.5 ng/mL
- cumulative probability of testosterone ≦0.5 ng/mL, Kaplan-Meier estimate (serum testosterone; 360 mg (60 mg/mL) maintenance Months 1,4,7,10 after 240 mg start): 89.0%
- cumulative probability of testosterone ≦0.5 ng/mL, Kaplan-Meier estimate (serum testosterone; 360 mg (60 mg/mL) maintenance Months 1,4,7,10 after 240 mg start, listed as degarelix): 89.0%
- patients with sustained testosterone suppression over the course of the observed time period (serum testosterone; 360 mg (60 mg/mL) maintenance dose): at least 90%
- cumulative probability of testosterone ≦0.5 ng/mL, Kaplan-Meier estimate (serum testosterone; 480 mg (60 mg/mL) maintenance Months 1,4,7,10 after 240 mg start): 93.3%
- cumulative probability of testosterone ≦0.5 ng/mL, Kaplan-Meier estimate (serum testosterone; 480 mg (60 mg/mL) maintenance Months 1,4,7,10 after 240 mg start, listed as degarelix): 93.3%
- patients with sustained testosterone suppression over the course of the observed time period (serum testosterone; 480 mg (60 mg/mL) maintenance dose): > 95%
- coverage probability (confidence of true suppression rate being greater than 90%) (serum testosterone; 360/60 mg): 39.7%
- proportion of patients with testosterone ≦0.5 ng/mL (serum testosterone; 360/60 mg, Day 28): 98.5%
- proportion of patients with testosterone ≦0.5 ng/mL (serum testosterone; 360/60 mg, Day 56): 100%
- proportion of patients with testosterone ≦0.5 ng/mL (serum testosterone; 360/60 mg, Day 84): 100%
- proportion of patients with testosterone ≦0.5 ng/mL (serum testosterone; 360/60 mg, Day 112): 96.8%
- proportion of patients with testosterone ≦0.5 ng/mL (serum testosterone; 360/60 mg, Day 140): 100%
- proportion of patients with testosterone ≦0.5 ng/mL (serum testosterone; 360/60 mg, Day 168): 98.4%
- proportion of patients with testosterone ≦0.5 ng/mL (serum testosterone; 360/60 mg, Day 196 (before re-dosing at Month 7)): 90.6%
- proportion of patients with testosterone ≦0.5 ng/mL (serum testosterone; 360/60 mg, Day 196 (before re-dosing at Month 7), listed as degarelix): 90.6%
- proportion of patients with testosterone ≦0.5 ng/mL (serum testosterone; 360/60 mg, Day 224): 98.4%
- proportion of patients with testosterone ≦0.5 ng/mL (serum testosterone; 360/60 mg, Day 252): 98.4%
- proportion of patients with testosterone ≦0.5 ng/mL (serum testosterone; 360/60 mg, Day 280 (before re-dosing at Month 10)): 93.3%
- proportion of patients with testosterone ≦0.5 ng/mL (serum testosterone; 360/60 mg, Day 280 (before re-dosing at Month 10), listed as degarelix): 93.3%
- proportion of patients with testosterone ≦0.5 ng/mL (serum testosterone; 360/60 mg, Day 308): 100%
- proportion of patients with testosterone ≦0.5 ng/mL (serum testosterone; 360/60 mg, Day 336): 96.7%
- proportion of patients with testosterone ≦0.5 ng/mL (serum testosterone; 360/60 mg, Day 364): 95.0%
- number of patients with testosterone > 0.5 ng/mL (serum testosterone; 360/60 mg, N=67): 7
- coverage probability (confidence of true suppression rate being greater than 90%) (serum testosterone; 360/60 mg, listed as degarelix): 39.7%
- coverage probability (confidence of true suppression rate being greater than 90%) (serum testosterone; 480/60 mg): 79.9%
- proportion of patients with testosterone ≦0.5 ng/mL (serum testosterone; 480/60 mg, Day 28): 98.4%
- proportion of patients with testosterone ≦0.5 ng/mL (serum testosterone; 480/60 mg, Day 56): 98.4%
- proportion of patients with testosterone ≦0.5 ng/mL (serum testosterone; 480/60 mg, Day 84): 98.4%
- proportion of patients with testosterone ≦0.5 ng/mL (serum testosterone; 480/60 mg, Day 112): 96.7%
- proportion of patients with testosterone ≦0.5 ng/mL (serum testosterone; 480/60 mg, Day 140): 98.3%
- proportion of patients with testosterone ≦0.5 ng/mL (serum testosterone; 480/60 mg, Day 168): 98.3%
- proportion of patients with testosterone ≦0.5 ng/mL (serum testosterone; 480/60 mg, Day 196): 98.3%
- proportion of patients with testosterone ≦0.5 ng/mL (serum testosterone; 480/60 mg, Day 224): 98.3%
- proportion of patients with testosterone ≦0.5 ng/mL (serum testosterone; 480/60 mg, Day 252): 100%
- proportion of patients with testosterone ≦0.5 ng/mL (serum testosterone; 480/60 mg, Day 280): 98.2%
- proportion of patients with testosterone ≦0.5 ng/mL (serum testosterone; 480/60 mg, Day 308): 100%
- proportion of patients with testosterone ≦0.5 ng/mL (serum testosterone; 480/60 mg, Day 336): 100%
- proportion of patients with testosterone ≦0.5 ng/mL (serum testosterone; 480/60 mg, Day 364): 96.3%
- number of patients with testosterone > 0.5 ng/mL (serum testosterone; 480/60 mg, N=66): 4
- coverage probability (confidence of true suppression rate being greater than 90%) (serum testosterone; 480/60 mg, listed as degarelix): 79.9%
- cumulative probability of testosterone ≦0.5 ng/mL, Kaplan-Meier estimate (serum testosterone; Total (480 mg and 360 mg arms)): 92.8%
- proportion of patients with testosterone ≦0.5 ng/mL (serum testosterone; Total (both arms, after 240 mg starting dose), Day 28): 98.4%
- proportion of patients with testosterone ≦0.5 ng/mL (serum testosterone; Total (both arms, after 240 mg starting dose), Day 28, listed as degarelix): 98%
- number of patients with testosterone > 0.5 ng/mL (serum testosterone; Total, N=133): 11
